The values that follow come from US20240116985A1, “STAPLED PEPTIDES AND METHODS THEREOF” (priority 2020, published 2024).

One data set is described as follows: CHI Log D procedure. The settings on record: for CHI Log D: pH 7.4; for chromatographic logD: pH 7.4, CHI Log D. It counts as physicochemical.
Data set [1] concerns the target T1, beta-catenin/TCF4 engagement (Homo sapiens, UniProt P35222).
T1 construct: expressed in transfected cells; host or cells: HEK293
T1 sequence (P35222 1-781): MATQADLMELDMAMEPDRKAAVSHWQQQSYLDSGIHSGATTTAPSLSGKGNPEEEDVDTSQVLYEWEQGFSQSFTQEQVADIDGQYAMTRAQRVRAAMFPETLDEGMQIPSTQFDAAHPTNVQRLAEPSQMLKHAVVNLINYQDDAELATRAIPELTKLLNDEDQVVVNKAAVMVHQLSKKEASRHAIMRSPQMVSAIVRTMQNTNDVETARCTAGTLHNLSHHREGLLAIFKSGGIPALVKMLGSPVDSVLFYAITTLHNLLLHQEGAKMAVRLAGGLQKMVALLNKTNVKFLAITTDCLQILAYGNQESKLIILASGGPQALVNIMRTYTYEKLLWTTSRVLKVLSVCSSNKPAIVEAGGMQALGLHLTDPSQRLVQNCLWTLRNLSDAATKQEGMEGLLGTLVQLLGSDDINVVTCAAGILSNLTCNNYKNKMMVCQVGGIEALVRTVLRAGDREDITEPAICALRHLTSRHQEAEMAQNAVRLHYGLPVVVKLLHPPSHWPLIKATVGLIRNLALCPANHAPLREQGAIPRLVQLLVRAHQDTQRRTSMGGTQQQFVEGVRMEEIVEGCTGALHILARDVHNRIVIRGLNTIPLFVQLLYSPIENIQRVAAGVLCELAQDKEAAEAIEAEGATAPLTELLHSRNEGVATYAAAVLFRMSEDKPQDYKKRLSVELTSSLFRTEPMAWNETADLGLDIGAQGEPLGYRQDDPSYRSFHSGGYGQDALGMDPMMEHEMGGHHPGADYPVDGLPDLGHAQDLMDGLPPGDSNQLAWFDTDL
Nature of the data set: Nano-BRET target engagement assay (B-cat-Halo & TCF4-Luc in HEK293 cells). It counts as cell-based. The settings on record: for inhibition at 10 µM: HEK293, @ 10 uM, read-out: NanoBRET % inh @ 10 uM.

Another data set in a line: Solubility in PBS. It is filed as physicochemical. An outline of the steps: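 The PBS solution was ultracentrifuged and the supernatant analyzed by HPLC. Its peak area was divided by that of a 50 μM peptide DMSO reference injection and multiplied by 50 uM to give solubility.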
Data set [2] concerns the target T2, full-length beta-Catenin (Uniprot ID P35222) (Homo sapiens, UniProt P35222).
T2 construct: 10 nM full-length beta-Catenin (Uniprot ID P35222)
T2 sequence (P35222 1-781): T1 sequence (P35222 1-781)
The experiment in a line: Fluorescence polarization IC50 (beta-catenin / 5FAM-TCF4 10-53 competition). It is filed as binding.

Each structure is given as a SMILES string. pIC50: −log10 of the molar value. Converted amounts (≈) assume the structure as drawn. Like-named read-outs stand apart in the source and are kept apart here. Where only a bound is given, the exact number is not on record here.

On to `CC(=O)N1CCC[C@]12CC=CCCCC1(CCCC=CCCCCCC[C@@](C)(C(=O)N[C@@H](Cc3ccccc3)C(=O)N[C@@H](Cc3csc4ccccc34)C(=O)N[C@@H](CC(N)=O)C(N)=O)NC(=O)[C@H](CC(N)=O)NC(=O)[C@H](Cc3ccccc3)NC(=O)[C@H](C)NC(=O)[C@H](C)NC(=O)[C@H](CCC(=O)O)NC(=O)[C@H](CC(=O)O)NC1=O)NC(=O)[C@H](CC(C)C)NC(=O)[C@H](CC(=O)O)NC2=O` (stereo partly drawn) [I-753, Ac-PL3-Asp-Leu-B5-Asp-Glu-Ala-Ala-Phe-Asn-S8-Phe-BztA-Asn-NH2], for which the “CHI Log D” value in “CHI Log D procedure” stood at 2.432. Also, the pIC50 is 5.00 in data set [1] (Abs IC50, read-out: NanoBRET Abs IC50); 5.00 in data set [1] (absolute IC50, read-out: NanoBRET Abs IC50); 7.85 in data set [2] (fluorescence polarization, read-out: beta-Catenin FP IC50); 7.85 in data set [2] (read-out: FP EC50). Also, in “Solubility in PBS”, the “Solubility” value is 50 µM (≈ 92.8 µg/mL).
For the molecule `CC(=O)N1CCC[C@]12CC=CCCCC1(CCCC=CCCCCOC(=O)N3CC[C@@](C(=O)N[C@@H](Cc4ccsc4)C(=O)N[C@@H](Cc4csc5ccccc45)C(=O)N[C@@H](CCC(N)=O)C(N)=O)(C3)NC(=O)[C@H](CC(N)=O)NC(=O)[C@H](Cc3ccccc3)NC(=O)[C@H](C)NC(=O)[C@H](C)NC(=O)[C@H](CC(=O)O)NC(=O)[C@H](CC(=O)O)NC1=O)NC(=O)[C@H](CC(C)(C)C)NC(=O)[C@H](CC(=O)O)NC2=O` (stereo partly drawn) [I-767, Ac-PL3-Asp-Npg-B5-Asp-Asp-Ala-Ala-Phe-Asn-PyrS3-3Thi-BztA-Gln-NH2], the “CHI Log D” value in the data set “CHI Log D procedure” was determined as 2.004. The pIC50 in data set [1] (read-out: NanoBRET Abs IC50) was 4.43; in data set [2] (read-out: FP EC50), 7.92; in data set [2] (read-out: beta-Catenin FP IC50), 7.92. The “Solubility” value in the data set “Solubility in PBS” worked out at 50 µM (≈ 96.6 µg/mL).
On to `CC(=O)N1CCC[C@]12CC=CCCCC1(CCCC=CCCCCOC(=O)N3CC[C@@](C(=O)N[C@@H](Cc4ccsc4)C(=O)N[C@@H](Cc4csc5ccccc45)C(=O)N[C@@H](Cc4c[nH]cn4)C(N)=O)(C3)NC(=O)[C@H](CC(N)=O)NC(=O)[C@H](Cc3ccccc3)NC(=O)[C@H](C)NC(=O)[C@H](C)NC(=O)[C@H](CC(=O)O)NC(=O)[C@H](CC(=O)O)NC1=O)NC(=O)[C@H](CC(C)(C)C)NC(=O)[C@H](CC(=O)O)NC2=O` (stereo partly drawn) [I-775, Ac-PL3-Asp-Npg-B5-Asp-Asp-Ala-Ala-Phe-Asn-PyrS3-3Thi-BztA-His-NH2], for which, in “CHI Log D procedure”, the “CHI Log D” value is reported as 2.092. Also, the inhibition at 10 µM in data set [1] amounted to 5.1%. Further, the pIC50 is less than 4.70 in data set [1] (read-out: NanoBRET Abs IC50), 8.15 in data set [2] (read-out: FP EC50) and 8.22 in data set [2] (read-out: beta-Catenin FP IC50). Moreover, in the data set “Solubility in PBS”, the “Solubility” value came to 47 µM (≈ 91.2 µg/mL).
On to `CC(=O)N1CCC[C@]12CC=CCCCC1(CCCC=CCCCOC(=O)N3CC[C@@](C(=O)N[C@@H](Cc4ccccc4)C(=O)N[C@@H](Cc4csc5ccccc45)C(=O)N[C@@H](Cc4c[nH]cn4)C(N)=O)(C3)NC(=O)[C@H](CC(N)=O)NC(=O)[C@H](Cc3ccccc3)NC(=O)[C@H](C)NC(=O)[C@H](C)NC(=O)[C@H](CC(=O)O)NC(=O)[C@H](CC(=O)O)NC1=O)NC(=O)[C@H](CC(C)(C)C)NC(=O)[C@H](CC(=O)O)NC2=O` (stereo partly drawn) [I-777, Ac-PL3-Asp-Npg-B5-Asp-Asp-Ala-Ala-Phe-Asn-PyrS2-Phe-BztA-His-NH2], for which, in “CHI Log D procedure”, the chromatographic logD came out at 2.15. Further, the inhibition at 10 µM in data set [1] stood at 24.5%. In addition, the pIC50 was 4.70 in data set [1] (read-out: NanoBRET Abs IC50), 4.84 in data set [1] (read-out: NanoBRET IC50) and 8.30 in data set [2] (read-out: beta-Catenin FP IC50). The “Solubility” value in the data set “Solubility in PBS” was determined as 50 µM (≈ 96.1 µg/mL).
Turning to `CC(=O)N1CCC[C@]12CC=CCCCC1(CCCC=CCCCOC(=O)N3CC[C@@](C(=O)N[C@@H](Cc4cccs4)C(=O)N[C@@H](Cc4csc5ccccc45)C(=O)N[C@@H](CCC(N)=O)C(N)=O)(C3)NC(=O)[C@H](CC(N)=O)NC(=O)[C@H](Cc3ccccc3)NC(=O)[C@H](C)NC(=O)[C@H](C)NC(=O)[C@H](CC(=O)O)NC(=O)[C@H](CC(=O)O)NC1=O)NC(=O)[C@H](CC(C)(C)C)NC(=O)[C@H](CC(=O)O)NC2=O` (stereo partly drawn) [I-778, Ac-PL3-Asp-Npg-B5-Asp-Asp-Ala-Ala-Phe-Asn-PyrS2-2Thi-BztA-Gln-NH2], in “CHI Log D procedure”, the chromatographic logD was determined as 2.04. Moreover, the pIC50 in data set [1] (read-out: NanoBRET Abs IC50) was 4.95; in data set [2] (read-out: beta-Catenin FP IC50), 8.10. The same molecule displayed a Solubility in “Solubility in PBS” (Solubility (uM)) of 43 µM (≈ 82.5 µg/mL).
Turning to `COc1ccccc1C[C@H](NC(=O)[C@]12CCN(C1)C(=O)OCCCC=CCCCC1(CCCC=CC[C@]3(CCCN3C(C)=O)C(=O)N[C@@H](CC(=O)O)C(=O)N[C@@H](CC(C)(C)C)C(=O)N1)C(=O)N[C@@H](CC(=O)O)C(=O)N[C@@H](CC(=O)O)C(=O)N[C@@H](C)C(=O)N[C@@H](C)C(=O)N[C@@H](Cc1ccccc1)C(=O)N[C@@H](CC(N)=O)C(=O)N2)C(=O)N[C@@H](Cc1csc2ccccc12)C(=O)N[C@@H](CCC(N)=O)C(N)=O` (stereo partly drawn) [I-780, Ac-PL3-Asp-Npg-B5-Asp-Asp-Ala-Ala-Phe-Asn-PyrS2-2OMeF-BztA-Gln-NH2], in the data set “CHI Log D procedure”, the chromatographic logD was determined as 2.08. Moreover, the pIC50 in data set [1] (read-out: NanoBRET Abs IC50) is 4.68; in data set [1] (read-out: NanoBRET IC50), 4.77; in data set [2] (read-out: beta-Catenin FP IC50), 8.05. In addition, the “Solubility” value in “Solubility in PBS” came to 50 µM (≈ 97.1 µg/mL).
Molecule `COc1ccccc1C[C@H](NC(=O)[C@]12CCN(C1)C(=O)OCCCC=CCCCC1(CCCC=CC[C@]3(CCCN3C(C)=O)C(=O)N[C@@H](CC(=O)O)C(=O)N[C@@H](CC(C)(C)C)C(=O)N1)C(=O)N[C@@H](CC(=O)O)C(=O)N[C@@H](CC(=O)O)C(=O)N[C@@H](C)C(=O)N[C@@H](C)C(=O)N[C@@H](Cc1ccccc1)C(=O)N[C@@H](CC(N)=O)C(=O)N2)C(=O)N[C@@H](Cc1csc2ccccc12)C(=O)N[C@@H](Cc1c[nH]cn1)C(N)=O` (stereo partly drawn) [I-781, Ac-PL3-Asp-Npg-B5-Asp-Asp-Ala-Ala-Phe-Asn-PyrS2-2OMeF-BztA-His-NH2] returned a chromatographic logD in “CHI Log D procedure” of 2.16. Besides, the inhibition at 10 µM in data set [1] worked out at 24%. Further, the values for the pIC50 in data set [1] (read-out: NanoBRET IC50) and in data set [2] (read-out: beta-Catenin FP IC50) were 4.94 and 8.30, respectively. In “Solubility in PBS” (Solubility (uM)), this molecule gave a Solubility of 41 µM (≈ 80 µg/mL).
`CC(=O)N1CCC[C@]12CC=CCCCC1(CCCC=CCCCOC(=O)N3CC[C@@](C(=O)N[C@@H](Cc4ccccc4C)C(=O)N[C@@H](Cc4csc5ccccc45)C(=O)N[C@@H](Cc4c[nH]cn4)C(N)=O)(C3)NC(=O)[C@H](CC(N)=O)NC(=O)[C@H](Cc3ccccc3)NC(=O)[C@H](C)NC(=O)[C@H](C)NC(=O)[C@H](CC(=O)O)NC(=O)[C@H](CC(=O)O)NC1=O)NC(=O)[C@H](CC(C)(C)C)NC(=O)[C@H](CC(=O)O)NC2=O` (stereo partly drawn) [I-782, Ac-PL3-Asp-Npg-B5-Asp-Asp-Ala-Ala-Phe-Asn-PyrS2-2MeF-BztA-His-NH2] returned a chromatographic logD in “CHI Log D procedure” of 2.21. Besides, the pIC50 in data set [1] (read-out: NanoBRET Abs IC50) is 4.91; in data set [2] (read-out: beta-Catenin FP IC50), 8.22. The amount in solution in “Solubility in PBS” (Solubility (uM)) (Solubility) came to 38 µM (≈ 73.5 µg/mL).
In “CHI Log D procedure”, `CC(=O)N1CCC[C@]12CC=CCCCC1(CCCC=CCCCOC(=O)N3CC[C@@](C(=O)N[C@@H](Cc4ccccc4Cl)C(=O)N[C@@H](Cc4csc5ccccc45)C(=O)N[C@@H](CCC(N)=O)C(N)=O)(C3)NC(=O)[C@H](CC(N)=O)NC(=O)[C@H](Cc3ccccc3)NC(=O)[C@H](C)NC(=O)[C@H](C)NC(=O)[C@H](CC(=O)O)NC(=O)[C@H](CC(=O)O)NC1=O)NC(=O)[C@H](CC(C)(C)C)NC(=O)[C@H](CC(=O)O)NC2=O` (stereo partly drawn) [I-783, Ac-PL3-Asp-Npg-B5-Asp-Asp-Ala-Ala-Phe-Asn-PyrS2-2C1F-BztA-Gln-NH2] gave a chromatographic logD of 2.19. For the same molecule, the inhibition at 10 µM in data set [1] stood at 50.9%. For the same molecule, the results for the pIC50 in data set [1] (read-out: NanoBRET Abs IC50), in data set [1] (read-out: NanoBRET IC50) and in data set [2] (read-out: beta-Catenin FP IC50) were 5.21, 5.12 and 8.15, respectively. The molecule also had a Solubility in “Solubility in PBS” (Solubility (uM)) of 48 µM (≈ 93.4 µg/mL).
